ChEMBL document CHEMBL3627674, “Discovery of wrightiadione as a novel template for the TrkA kinase inhibitors” (Bioorg Med Chem Lett, 2015)
pIC50: −log10 of the molar value.

Experiments:
[1] = system: Mast/stem cell growth factor receptor Kit (Homo sapiens), P10721 [D816V]; assay: Inhibition of KIT D816V mutant (unknown origin) assessed as remaining activity at 10 uM by high-throughput assay relative to control
[2] = target: Tyrosine-protein kinase ABL1 (Homo sapiens) (UniProt P00519); assay: Inhibition of ABL1 (unknown origin) assessed as remaining activity at 10 uM by high-throughput assay relative to control
[3] = target: Protein kinase C epsilon type (Homo sapiens) (UniProt Q02156); assay: Inhibition of PRKCE (unknown origin) assessed as remaining activity at 10 uM by high-throughput assay relative to control
[4] = target: Bone morphogenetic protein receptor type-2 (Homo sapiens) (UniProt Q13873); assay: Inhibition of BMPR2 (unknown origin) assessed as remaining activity at 10 uM by high-throughput assay relative to control
[5] = target: Dual specificity mitogen-activated protein kinase kinase 1 (Homo sapiens) (UniProt Q02750); assay: Inhibition of MEK1 (unknown origin) assessed as remaining activity at 10 uM by high-throughput assay relative to control
[6] = target: SRSF protein kinase 3 (Homo sapiens) (UniProt Q9UPE1); assay: Inhibition of SRPK3 (unknown origin) assessed as remaining activity at 10 uM by high-throughput assay relative to control
[7] = target: Insulin receptor (Homo sapiens) (UniProt P06213); assay: Inhibition of INSR (unknown origin) assessed as remaining activity at 10 uM by high-throughput assay relative to control
[8] = target: Receptor tyrosine-protein kinase erbB-2 (Homo sapiens) (UniProt P04626); assay: Inhibition of ERBB2 (unknown origin) assessed as remaining activity at 10 uM by high-throughput assay relative to control
[9] = target: Cyclin-dependent kinase 16 (Homo sapiens) (UniProt Q00536); assay: Inhibition of PCTK1 (unknown origin) assessed as remaining activity at 10 uM by high-throughput assay relative to control
[10] = target: Macrophage colony-stimulating factor 1 receptor (Homo sapiens) (UniProt P07333); assay: Inhibition of CSF1R (unknown origin) assessed as remaining activity at 10 uM by high-throughput assay relative to control
[11] = target: Proto-oncogene tyrosine-protein kinase receptor Ret (Homo sapiens) (UniProt P07949); assay: Inhibition of RET (unknown origin) assessed as remaining activity at 10 uM by high-throughput assay relative to control
[12] = target: Serine/threonine-protein kinase Chk1 (Homo sapiens) (UniProt O14757); assay: Inhibition of CHEK1 (unknown origin) assessed as remaining activity at 10 uM by high-throughput assay relative to control
[13] = target: Serine/threonine-protein kinase RIO2 (Homo sapiens) (UniProt Q9BVS4); assay: Inhibition of RIOK2 (unknown origin) assessed as remaining activity at 10 uM by high-throughput assay relative to control
[14] = target: Tyrosine-protein kinase JAK2 (Homo sapiens) (UniProt O60674); assay: Inhibition of JAK2 JH1 catalytic domain (unknown origin) assessed as remaining activity at 10 uM by high-throughput assay relative to control
[15] = target: Proto-oncogene tyrosine-protein kinase Src (Homo sapiens) (UniProt P12931); assay: Inhibition of SRC (unknown origin) assessed as remaining activity at 10 uM by high-throughput assay relative to control
[16] = target: High affinity nerve growth factor receptor (Homo sapiens, UniProt P04629); assay: Inhibition of TrkA (unknown origin) by radiometric analysis in presence of [gamma-33P]-ATP
[17] = target: Mitogen-activated protein kinase 3 (Homo sapiens) (UniProt P27361); assay: Inhibition of ERK1 (unknown origin) assessed as remaining activity at 10 uM by high-throughput assay relative to control
[18] = target: Serine/threonine-protein kinase PAK 4 (Homo sapiens) (UniProt O96013); assay: Inhibition of PAK4 (unknown origin) assessed as remaining activity at 10 uM by high-throughput assay relative to control
[19] = target: Cyclin-dependent kinase 3 (Homo sapiens) (UniProt Q00526); assay: Inhibition of CDK3 (unknown origin) assessed as remaining activity at 10 uM by high-throughput assay relative to control
[20] = target: Aurora kinase B (Homo sapiens) (UniProt Q96GD4); assay: Inhibition of AURKB (unknown origin) assessed as remaining activity at 10 uM by high-throughput assay relative to control
[21] = target: Casein kinase I isoform delta (Homo sapiens) (UniProt P48730); assay: Inhibition of CSNK1D (unknown origin) assessed as remaining activity at 10 uM by high-throughput assay relative to control
[22] = target: Cyclin-dependent kinase 11B (Homo sapiens) (UniProt P21127); assay: Inhibition of CDK11 (unknown origin) assessed as remaining activity at 10 uM by high-throughput assay relative to control
[23] = target: Aurora kinase A (Homo sapiens) (UniProt O14965); assay: Inhibition of AURKA (unknown origin) assessed as remaining activity at 10 uM by high-throughput assay relative to control
[24] = target: Cyclin-dependent kinase 2 (Homo sapiens) (UniProt P24941); assay: Inhibition of CDK2 (unknown origin) assessed as remaining activity at 10 uM by high-throughput assay relative to control
[25] = target: Receptor-type tyrosine-protein kinase FLT3 (Homo sapiens) (UniProt P36888); assay: Inhibition of FLT3 (unknown origin) assessed as remaining activity at 10 uM by high-throughput assay relative to control
[26] = target: Tyrosine-protein kinase receptor UFO (Homo sapiens) (UniProt P30530); assay: Inhibition of AXL (unknown origin) assessed as remaining activity at 10 uM by high-throughput assay relative to control
[27] = target: Mitogen-activated protein kinase kinase kinase 9 (Homo sapiens) (UniProt P80192); assay: Inhibition of MLK1 (unknown origin) assessed as remaining activity at 10 uM by high-throughput assay relative to control
[28] = target: Testis-specific serine/threonine-protein kinase 1 (Homo sapiens) (UniProt Q9BXA7); assay: Inhibition of TSSK1B (unknown origin) assessed as remaining activity at 10 uM by high-throughput assay relative to control
[29] = target: Serine/threonine-protein kinase PLK3 (Homo sapiens, UniProt Q9H4B4); assay: Inhibition of PLK3 (unknown origin) assessed as remaining activity at 10 uM by high-throughput assay relative to control
[30] = target: Mitogen-activated protein kinase 14 (Homo sapiens) (UniProt Q16539); assay: Inhibition of p38-alpha (unknown origin) assessed as remaining activity at 10 uM by high-throughput assay relative to control
[31] = target: Tyrosine-protein kinase JAK3 (Homo sapiens) (UniProt P52333); assay: Inhibition of JAK3 JH1 catalytic domain (unknown origin) assessed as remaining activity at 10 uM by high-throughput assay relative to control
[32] = target: Atypical kinase COQ8A, mitochondrial (Homo sapiens) (UniProt Q8NI60); assay: Inhibition of ADCK3 (unknown origin) assessed as remaining activity at 10 uM by high-throughput assay relative to control

Receptor-type tyrosine-protein kinase FLT3 (Homo sapiens), sequence (P36888 whole entry): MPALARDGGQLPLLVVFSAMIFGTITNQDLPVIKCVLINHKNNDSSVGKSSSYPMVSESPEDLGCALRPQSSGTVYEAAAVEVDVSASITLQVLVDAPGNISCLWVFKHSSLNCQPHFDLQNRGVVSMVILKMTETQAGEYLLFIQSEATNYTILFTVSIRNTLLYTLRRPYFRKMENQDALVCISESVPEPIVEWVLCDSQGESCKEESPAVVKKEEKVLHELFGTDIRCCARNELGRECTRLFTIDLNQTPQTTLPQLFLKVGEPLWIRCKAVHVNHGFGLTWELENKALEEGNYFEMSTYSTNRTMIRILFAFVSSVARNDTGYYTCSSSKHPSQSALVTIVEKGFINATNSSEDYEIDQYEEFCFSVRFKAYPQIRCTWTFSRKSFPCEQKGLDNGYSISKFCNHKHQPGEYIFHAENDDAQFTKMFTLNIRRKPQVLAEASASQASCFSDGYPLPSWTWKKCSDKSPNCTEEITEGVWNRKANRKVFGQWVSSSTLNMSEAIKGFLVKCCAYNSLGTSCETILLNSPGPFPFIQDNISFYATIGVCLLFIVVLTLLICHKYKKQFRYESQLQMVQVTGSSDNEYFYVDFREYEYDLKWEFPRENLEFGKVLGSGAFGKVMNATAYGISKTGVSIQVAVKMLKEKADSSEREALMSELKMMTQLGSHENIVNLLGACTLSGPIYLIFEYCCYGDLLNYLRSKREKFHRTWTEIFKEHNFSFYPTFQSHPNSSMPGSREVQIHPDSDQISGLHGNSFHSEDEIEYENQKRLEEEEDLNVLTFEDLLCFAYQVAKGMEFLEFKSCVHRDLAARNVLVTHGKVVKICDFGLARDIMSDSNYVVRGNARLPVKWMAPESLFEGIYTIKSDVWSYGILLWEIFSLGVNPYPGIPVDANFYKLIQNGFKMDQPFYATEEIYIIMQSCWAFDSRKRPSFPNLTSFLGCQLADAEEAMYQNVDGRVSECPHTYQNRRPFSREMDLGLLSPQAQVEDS
Mast/stem cell growth factor receptor Kit (Homo sapiens), P10721 [D816V], sequence (P10721 whole entry D816V): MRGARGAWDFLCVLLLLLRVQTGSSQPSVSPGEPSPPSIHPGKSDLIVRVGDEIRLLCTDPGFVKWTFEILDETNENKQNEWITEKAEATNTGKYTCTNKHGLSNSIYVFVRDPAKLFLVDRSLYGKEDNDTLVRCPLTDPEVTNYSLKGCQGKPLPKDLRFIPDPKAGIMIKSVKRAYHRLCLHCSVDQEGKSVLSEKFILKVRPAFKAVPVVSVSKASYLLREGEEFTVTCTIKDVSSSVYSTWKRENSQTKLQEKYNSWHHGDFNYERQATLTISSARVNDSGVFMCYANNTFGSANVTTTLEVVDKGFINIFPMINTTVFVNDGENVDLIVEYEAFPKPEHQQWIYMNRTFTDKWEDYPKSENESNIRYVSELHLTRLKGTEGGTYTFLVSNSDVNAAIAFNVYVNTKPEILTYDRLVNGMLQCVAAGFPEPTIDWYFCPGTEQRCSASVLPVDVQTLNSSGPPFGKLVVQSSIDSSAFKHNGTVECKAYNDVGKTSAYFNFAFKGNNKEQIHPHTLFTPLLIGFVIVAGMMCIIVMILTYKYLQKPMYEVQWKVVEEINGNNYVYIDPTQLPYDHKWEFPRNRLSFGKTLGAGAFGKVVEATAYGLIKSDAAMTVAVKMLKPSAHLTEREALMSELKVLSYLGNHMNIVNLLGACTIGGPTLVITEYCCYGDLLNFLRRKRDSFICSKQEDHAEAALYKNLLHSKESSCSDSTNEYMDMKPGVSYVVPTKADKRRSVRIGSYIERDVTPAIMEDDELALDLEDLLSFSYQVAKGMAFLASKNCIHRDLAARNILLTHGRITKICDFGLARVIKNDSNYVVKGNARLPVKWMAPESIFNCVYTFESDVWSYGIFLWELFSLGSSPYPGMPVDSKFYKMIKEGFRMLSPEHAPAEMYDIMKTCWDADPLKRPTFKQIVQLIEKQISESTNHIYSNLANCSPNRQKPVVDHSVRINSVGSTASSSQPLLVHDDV
Mitogen-activated protein kinase kinase kinase 9 (Homo sapiens), sequence (P80192 whole entry, looked up): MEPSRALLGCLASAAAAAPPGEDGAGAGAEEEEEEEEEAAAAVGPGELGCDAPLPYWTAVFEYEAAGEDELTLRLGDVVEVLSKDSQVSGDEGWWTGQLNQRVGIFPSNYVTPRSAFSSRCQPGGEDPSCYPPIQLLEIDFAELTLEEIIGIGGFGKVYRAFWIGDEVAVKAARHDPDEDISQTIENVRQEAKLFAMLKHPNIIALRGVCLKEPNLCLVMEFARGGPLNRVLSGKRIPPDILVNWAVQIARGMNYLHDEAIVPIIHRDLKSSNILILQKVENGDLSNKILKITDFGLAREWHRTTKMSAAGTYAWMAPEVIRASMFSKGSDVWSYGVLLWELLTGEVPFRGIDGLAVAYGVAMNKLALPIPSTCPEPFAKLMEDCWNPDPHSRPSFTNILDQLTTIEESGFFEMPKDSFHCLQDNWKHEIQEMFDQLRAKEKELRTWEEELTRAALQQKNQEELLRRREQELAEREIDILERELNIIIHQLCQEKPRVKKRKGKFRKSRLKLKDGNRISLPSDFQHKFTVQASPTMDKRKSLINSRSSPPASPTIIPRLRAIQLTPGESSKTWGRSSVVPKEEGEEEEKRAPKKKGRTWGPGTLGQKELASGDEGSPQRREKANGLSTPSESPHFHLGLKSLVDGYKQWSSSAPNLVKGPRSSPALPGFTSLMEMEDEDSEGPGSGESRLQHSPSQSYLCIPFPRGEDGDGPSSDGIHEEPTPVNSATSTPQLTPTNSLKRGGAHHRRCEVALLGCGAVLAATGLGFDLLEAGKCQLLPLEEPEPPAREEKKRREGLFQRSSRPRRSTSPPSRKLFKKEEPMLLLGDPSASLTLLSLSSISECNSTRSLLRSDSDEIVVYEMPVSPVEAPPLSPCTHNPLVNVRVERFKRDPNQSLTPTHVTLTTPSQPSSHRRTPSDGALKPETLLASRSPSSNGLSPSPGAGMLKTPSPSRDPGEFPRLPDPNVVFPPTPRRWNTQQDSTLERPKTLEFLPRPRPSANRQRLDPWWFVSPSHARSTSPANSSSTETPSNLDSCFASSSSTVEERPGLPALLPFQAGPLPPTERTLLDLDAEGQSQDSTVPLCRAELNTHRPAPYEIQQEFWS
Dual specificity mitogen-activated protein kinase kinase 1 (Homo sapiens), sequence (Q02750 whole entry): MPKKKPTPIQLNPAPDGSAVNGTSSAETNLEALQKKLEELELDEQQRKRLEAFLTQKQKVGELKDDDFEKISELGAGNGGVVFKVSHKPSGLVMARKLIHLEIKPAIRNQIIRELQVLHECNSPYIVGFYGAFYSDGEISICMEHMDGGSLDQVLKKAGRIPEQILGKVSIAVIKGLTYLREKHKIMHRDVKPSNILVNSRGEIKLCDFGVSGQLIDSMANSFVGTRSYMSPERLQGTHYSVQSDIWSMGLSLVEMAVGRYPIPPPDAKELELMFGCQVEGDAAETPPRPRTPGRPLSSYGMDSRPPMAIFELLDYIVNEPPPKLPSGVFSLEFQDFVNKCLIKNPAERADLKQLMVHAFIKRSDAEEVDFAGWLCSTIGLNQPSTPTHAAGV
Serine/threonine-protein kinase PLK3, sequence (Q9H4B4 whole entry, looked up): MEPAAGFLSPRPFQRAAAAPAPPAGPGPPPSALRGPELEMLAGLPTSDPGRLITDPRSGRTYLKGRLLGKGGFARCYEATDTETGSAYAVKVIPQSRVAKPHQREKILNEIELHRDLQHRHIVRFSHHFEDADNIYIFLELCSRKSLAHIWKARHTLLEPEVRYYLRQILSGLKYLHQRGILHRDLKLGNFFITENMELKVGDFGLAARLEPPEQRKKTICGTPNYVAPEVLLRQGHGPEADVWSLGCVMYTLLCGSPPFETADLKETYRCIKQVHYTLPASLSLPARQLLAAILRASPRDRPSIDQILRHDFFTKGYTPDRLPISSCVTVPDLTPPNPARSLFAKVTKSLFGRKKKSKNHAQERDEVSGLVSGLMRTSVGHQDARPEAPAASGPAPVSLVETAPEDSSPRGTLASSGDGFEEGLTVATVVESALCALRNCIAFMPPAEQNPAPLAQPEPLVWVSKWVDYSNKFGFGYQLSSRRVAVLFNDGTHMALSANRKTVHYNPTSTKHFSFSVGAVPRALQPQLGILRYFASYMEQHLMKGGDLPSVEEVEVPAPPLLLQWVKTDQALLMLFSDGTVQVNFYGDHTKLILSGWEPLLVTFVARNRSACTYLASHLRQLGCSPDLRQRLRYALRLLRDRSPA
Aurora kinase A (Homo sapiens), sequence (O14965 whole entry): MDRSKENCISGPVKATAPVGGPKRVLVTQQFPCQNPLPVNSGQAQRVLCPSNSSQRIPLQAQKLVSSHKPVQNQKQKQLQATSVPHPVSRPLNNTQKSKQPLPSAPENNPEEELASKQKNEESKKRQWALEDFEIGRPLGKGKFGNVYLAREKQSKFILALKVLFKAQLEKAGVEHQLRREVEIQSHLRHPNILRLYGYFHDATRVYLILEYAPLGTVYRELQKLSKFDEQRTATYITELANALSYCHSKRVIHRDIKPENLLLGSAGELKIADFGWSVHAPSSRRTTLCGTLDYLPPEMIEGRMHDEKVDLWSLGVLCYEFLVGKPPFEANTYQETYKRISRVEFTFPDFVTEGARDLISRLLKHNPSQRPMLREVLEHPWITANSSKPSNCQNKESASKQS
Testis-specific serine/threonine-protein kinase 1 (Homo sapiens), sequence (Q9BXA7 whole entry): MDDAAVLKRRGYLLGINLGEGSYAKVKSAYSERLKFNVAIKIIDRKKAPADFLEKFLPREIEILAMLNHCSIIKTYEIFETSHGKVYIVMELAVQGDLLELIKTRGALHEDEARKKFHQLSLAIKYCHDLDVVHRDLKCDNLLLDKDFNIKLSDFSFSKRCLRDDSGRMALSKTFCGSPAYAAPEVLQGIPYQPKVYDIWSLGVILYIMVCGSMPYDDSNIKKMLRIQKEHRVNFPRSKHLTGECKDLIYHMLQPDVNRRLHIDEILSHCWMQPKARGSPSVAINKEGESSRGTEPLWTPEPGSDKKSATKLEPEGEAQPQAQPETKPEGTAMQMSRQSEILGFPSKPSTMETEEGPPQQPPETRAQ

Structure (SMILES): O=C1c2ccccc2-c2c1oc1ccccc1c2=O
- Activity [1]: 58%
- Activity [2]: 95%
- Activity [3]: 96%
- Activity [4]: 53%
- Activity [5]: 85%
- Activity [6]: 73%
- Activity [7]: 72%
- Activity [8]: 92%
- Activity [9]: 92%
- Activity [10]: 77%
- Activity [11]: 74%
- Activity [12]: 90%
- Activity [13]: 70%
- Activity [14]: 42%
- Activity [15]: 83%
- pIC50 [16]: 4.25
- Activity [17]: 87%
- Activity [18]: 98%
- Activity [19]: 91%
- Activity [20]: 66%
- Activity [21]: 30%
- Activity [22]: 66%
- Activity [23]: 82%
- Activity [24]: 82%
- Activity [25]: 51%
- Activity [26]: 26%
- Activity [27]: 74%
- Activity [28]: 71%
- Activity [29]: 8.3%
- Activity [30]: 95%
- Activity [31]: 61%
- Activity [32]: 73%
